Test results taken from patent US10814006B2, “Fluorescent prodrugs” (UNIVERSITY OF IOWA RESEARCH FOUNDATION, priority 2015, dated 2020).
Entries after “also recorded” stand apart in the source; their conditions may differ. Like-named read-outs stand apart in the source and are kept apart here. Each block holds one compound with its values, some of them ahead of it.

Columns and labels:
[1] = tested on: primary human gamma delta T cells (Vγ9Vδ2 T cells); conditions: cited from earlier work
Daudi cells = assay: Proliferation assay, Daudi cells (CellQuantiBlue); type: cell-based; conditions: 72 hours; for IC50: Daudi cells, QB assay
Experimental: (§1) K562 cells were cultured in fresh K562 media (RPMI-1640, 10% heat-inactivated Fetalclone III, 1× penicillin/streptomycin). Daudi and RPMI-8226 cells were cultured in fresh Daudi/RPMI media (RPMI-1640, 10% heat-inactivated FBS, 1× penicillin/streptomycin). Gamma delta T cells were cultured as described previously. Briefly, cells were expanded from peripheral blood mononuclear cells in fresh T cell media (RPMI-1640, 10% heat-inactivated FBS, 1× HEPES, pyruvate, non-essential amino acids, penicillin/streptomycin, beta-mercaptoethanol) and added to 6-well plates. Cells were stimulated with test compounds for three days at concentrations indicated in the text. Cells were washed twice then cultured for another eleven days after compound removal. Human interleukin 2 (5 ng/mL) was supplemented every three days. Experiments were performed at least three times independently using at least two different blood donors.
(§2) To assess K562 proliferation, 10000 cells/well were added to 96-well plates in 100 μL K562 media in the presence of test compounds. Similarly, experiments with Daudi cells were initiated at 5000 cells/well and RPMI8226 cells initiated at 6000 cells/well. The cell concentrations were determined by prior dose response experiments to maximize proliferation rates. Cells were allowed to proliferate for 72 hours. During the last 2 hours, cells were labeled with 10 μL of CellQuantiBlue reagent and scanned with a Victor plate reader.

Jurkat cells = assay: Proliferation assay, Jurkat cells (CellQuantiBlue); type: cell-based; conditions: 72 hours; for IC50: Jurkat cells, QB assay
Experimental: [Worded in the source for another cell line; this cell line is reported under the same test.] as §2

K562 cells [2] = assay: Proliferation assay, K562 cells (CellQuantiBlue); type: cell-based; conditions: 72 hours; for IC50: K562 cells, QB assay
Experimental: as §1, §2

RPMI-8226 cells = assay: Proliferation assay, RPMI-8226 cells (CellQuantiBlue); type: cell-based; conditions: 72 hours; for IC50: RPMI-8226 cells, QB assay
Experimental: as §1, §2

[3] = tested on: primary human gamma delta T cells (Vγ9Vδ2 T cells); assay: Gamma delta T cell expansion from PBMCs; type: cell-based; conditions: for gamma delta T cell agonist activity: PBMCs, CD3 and gamma delta TCR surface staining; for EC50: 72 hours treatment
Experimental: as §1
Total gamma delta TCR was labeled using FITC-anti-human Pan gamma delta TCR antibody and CD3 was labeled using PE-conjugated anti-human CD3 as described.
The MOCCA prodrugs were also evaluated in a functional assay of their ability to stimulate proliferation of primary human gamma delta T cells. Dose response experiments were performed with the experimental compounds—MOCCA-Me-C-HMBP and MOCCA-POM-C-HMBP. POM-Me-C-HMBP, POM2-C-HMBP, Me-C-HMBP, C-HMBP or HMBPP were used as positive controls. Unstimulated cells were used as a negative control. Cells were treated for 72 hours with test compounds, washed, then expanded for 11 additional days prior to quantification to assess proliferation.

[4] = Plasma metabolism by thin layer chromatography; type: in vitro ADME; conditions: human plasma
Experimental: Compounds were exposed to cells, plasma, media, or PBS as indicated in the text in 100 μL volumes. Compounds were extracted from all biological mixtures using 200 μL of organic solvent containing 95% dichloromethane, 5% ethanol, and 0.25% glacial acetic acid. Extracts were separated by normal phase […] using 95% dichloromethane, 5% ethanol, and 0.25% glacial acetic acid as the mobile phase. Compounds were visualized under UV light.
(§3) The prodrugs and the MOCCA protecting group were stable in PBS (FIG. 5A). […] The half-life was determined to be 7 minutes in this assay. […] In order to confirm that the loss of fluorescence of MOCCA-Me-C-HMBP was indeed due to hydrolysis of the MOCCA-phosphonate ester, the end products were extracted and analyzed by thin layer chromatography. MOCCA-Me-C-HMBP was fully hydrolyzed to yield the free MOCCA group in the presence of human plasma within 40 minutes (FIG. 5D). Loss of the prodrug occurred at the same time as the appearance of the MOCCA free acid.

K562 cells [5] = assay: Quantification of cellular uptake in K562 cells; type: cell-based; conditions: K562 cells in PBS, 10 μM
Experimental: (§4) Compounds were exposed to PBS, K562 cells in PBS, or 50% pooled human plasma in PBS. K562 cells were used at a concentration of 1 million per mL. The fluorescence was detected using a Victor X5 plate reader with excitation at 355 nm and emissions at 405. Compounds were mixed with each biological matrix to a final concentration of 10 μM on ice. A baseline reading was measured. Compounds were incubated for one hour at 37° C. and subsequent readings were taken every 15 minutes.
The compounds were then used to examine rates of internalization into K562 cells. […] That is, within hours, effectively all of the drug can pass through the cells.

[6] = Plasma metabolism by loss of fluorescence (spectrophotometry); type: in vitro ADME, human
Experimental: as §4
This assay was then adapted to a 384-well-plate format for use in a plate reader equipped with a 355/40 nm excitation filter and a 405/10 nm emission filter. As expected, the fluorescence intensity of MOCCA-Me-C-HMBP in PBS was much higher than that of the free MOCCA group in PBS (FIG. 4B). Additionally, the fluorescence of the free MOCCA group was further reduced when incubated in human plasma (FIG. 4C). […] Therefore, the esterase-mediated hydrolysis of MOCCA-Me-C-HMBP could be readily assessed by quantification of the two-step (release followed by quenching) loss of fluorescence following exposure to various biological matrices.
as §3

[7] = pH dependence of fluorescence intensity; type: physicochemical; conditions: aqueous solutions, pH 6 vs pH 3
Source text: The use of the MOCCA prodrugs as probes with which to determine rates of biological deprotection (FIG. 4) was examined. All three compounds were readily detected by spectrophotometry with excitation maxima of 360 nm and emission maxima of 410 nm in aqueous solutions. Importantly, the fluorescence intensity of the free MOCCA group was strongly dependent upon pH of the solvent (FIG. 4A), correlating with the expected protonation of the carboxylic acid. At pH 6 the intensity of the free MOCCA group was less than 10% of its intensity at pH 3. At the same time, the fluorescence intensity of the MOCCA prodrugs was not pH dependent. Taken together, the MOCCA prodrugs would be expected to rapidly lose fluorescence intensity during metabolism at neutral pH, as the free MOCCA group is released from the prodrug and remains in the deprotonated form.

[8] = Reference: Hsiao et al., read-out: EC50 for T cell expansion
[9] = dose response curves, read-out: EC50, gamma delta T cell proliferation

SMILES: C/C(=C\CCP(=O)(O)O)CO [C-HMBP]
EC50 [1, 8]: 4 µM
IC50 (Daudi cells): > 100 µM
IC50 (Jurkat cells): > 100 µM
IC50 (K562 cells [2]): > 100 µM
IC50 (RPMI-8226 cells): > 100 µM

IC50 (Daudi cells): 56 µM
IC50 (Jurkat cells): 53 µM
IC50 (K562 cells [2]): > 100 µM
IC50 (RPMI-8226 cells): 43 µM
SMILES: COc1ccc2cc(C(=O)OCOP(=O)(CC/C=C(\C)CO)OCOC(=O)C(C)(C)C)c(=O)oc2c1 (stereo not drawn) [MOCCA-POM (9)]
gamma delta T cell agonist activity [3]: functioned as a gamma delta T cell agonist
EC50 [3, 9]: 0.0039 µM

IC50 (Daudi cells): 58 µM
IC50 (Jurkat cells): > 100 µM
IC50 (K562 cells [2]): > 100 µM
IC50 (RPMI-8226 cells): 44 µM
SMILES: C/C(=C\CCP(=O)(OCOC(=O)C(C)(C)C)OCOC(=O)C(C)(C)C)CO [POM2-C-HMBP (7)]
EC50 ([1]; published value, unit inferred, read-out: published EC50 value, gamma delta T cell proliferation): 0.0054 µM

SMILES: COc1ccc2cc(C(=O)OCOP(=O)(CC/C=C(\C)CO)OC)c(=O)oc2c1 (stereo not drawn) [MOCCA-Me—C-HMBP (5)]
time to full hydrolysis to the free MOCCA group [4]: ≤ 40 min
half-life ([4]; read-out: half-life of enzymatic release): 7.8 min
EC50 ([3]; Homo sapiens, T-cell, 11 additional days expansion, Reference: none, read-out: EC50 for T cell expansion): 0.018 µM
EC50 ([3]; Homo sapiens, T-cell, dose response curves, read-out: EC50, gamma delta T cell proliferation): 0.018 µM
gamma delta T cell agonist activity [3]: functioned as a gamma delta T cell agonist; also recorded: potent gamma delta T cell agonist
increase in activity of the MOCCA protected compound over Me-C-HMBP ([3]; ratio of EC50 values): 1300 fold
cellular uptake / cellular metabolism in K562 cells (K562 cells [5]): faster than that of MOCCA-POM-C-HMBP
IC50 (Daudi cells; Homo sapiens): > 100 µM
IC50 (Jurkat cells; Homo sapiens): > 100 µM
order of decay kinetics in plasma ([6]; 50% human plasma in PBS, spectrophotometry): 2nd order kinetics
half-life at 10 μM ([6]; 50% pooled human plasma in PBS, 50% human plasma in PBS, spectrophotometry): 7 min
relative rate of plasma metabolism ([6]; human plasma): metabolized more rapidly relative to the bulkier MOCCA-POM-C-HMBP
IC50 (K562 cells [2]; Homo sapiens): > 100 µM
IC50 (RPMI-8226 cells; Homo sapiens): 64 µM

IC50 (Daudi cells; Homo sapiens): > 100 µM
IC50 (Jurkat cells; Homo sapiens): > 100 µM
fluorescence intensity at pH 6 relative to intensity at pH 3 [7]: less than 10%
IC50 (K562 cells [2]; Homo sapiens): > 100 µM
IC50 (RPMI-8226 cells; Homo sapiens): > 100 µM
SMILES: COc1ccc2cc(C(=O)O)c(=O)oc2c1 [MOCCA (1), 7-Methoxy-2-oxo-2H-chromene-3-carboxylic acid]
cellular toxicity, Daudi (Daudi cells; concentrations up to 100 μM): no cellular toxicity
cellular toxicity, Jurkat (Jurkat cells; concentrations up to 100 μM): no cellular toxicity
cellular toxicity, K562 (K562 cells [2]; concentrations up to 100 μM): no cellular toxicity
cellular toxicity, RPMI-8226 (RPMI-8226 cells; concentrations up to 100 μM): no cellular toxicity

SMILES: C1CN2CCN1CC2.COP(=O)(O)CC/C=C(\C)CO [Me—C-HMBP (4)]
EC50 [3, 9]: 23 µM
IC50 (Daudi cells): > 100 µM
IC50 (Jurkat cells): > 100 µM
IC50 (K562 cells [2]): > 100 µM
IC50 (RPMI-8226 cells): > 100 µM

IC50 (Daudi cells): > 100 µM
IC50 (Jurkat cells): > 100 µM
IC50 (K562 cells [2]): > 100 µM
IC50 (RPMI-8226 cells): > 100 µM
SMILES: COP(=O)(CC/C=C(\C)CO)OCOC(=O)C(C)(C)C (stereo not drawn) [POM-Me—C-HMBP]
gamma delta T cell agonist activity [3]: not statistically different from that of POM-Me-C-HMBP
EC50 [1, 8]: 0.52 µM
EC50 ([1]; published value, Hsiao et al. 2014, read-out: published EC50, gamma delta T cell proliferation): 0.5 µM
